Experimental data: EPA's ToxValDB 9.5 (doi:10.2903/j.efsa.2010.1669)
In brackets after ≈: the same amount, converted by molar mass.

Experiments:
Tagia sp. = settings: acute; duration: 14 days; mortality
Apis mellifera = settings: acute; duration: 48 hours; dermal; mortality
Rattus norvegicus = settings: for NOAEL: body weight
Canidae = settings: oral, Dog Other, organ weight
Oryctolagus sp. = settings: developmental; development
Colinus virginianus = settings: for LD50: acute, oral, mortality
Daphnia magna = settings: chronic/long-term; duration: 21 days; reproduction
Aphidius rhopalosiphi = assay: LR50; higher = less toxic; settings: not reported; mortality

CCCC(=NOCC)C1=C(O)CC(C2CCCSC2)CC1=O (stereo unspecified) [Cycloxydim]
LC50 (Tagia sp.): > 1000 mg/kg | LC50 (Oncorhynchus mykiss; acute, duration: 96 hours, mortality): 220 mg/L (≈ 676 µM) | NOEC (Oncorhynchus mykiss; chronic/long-term, duration: 28 days, growth): 21.5 mg/L | LD50 (Apis mellifera): > 100 µg/piece | LD50 (Rattus norvegicus; acute, oral, mortality): 3830 mg/kg-day | NOAEL (Rattus norvegicus; chronic, duration: 18 months): 7 mg/kg-day | NOAEL (Rattus norvegicus; chronic, duration: 24 months): 7 mg/kg-day | NOAEL (Rattus norvegicus; reproduction developmental): 9.7 mg/kg-day | NOAEL (Canidae; chronic, duration: 1 years): 10 mg/kg-day | NOAEL (Canidae; subchronic, duration: 3 months): 10 mg/kg-day | NOAEL (Oryctolagus sp.): 200 mg/kg-day | LD50 (Colinus virginianus; diet): 497 mg/kg-day | LD50 (Colinus virginianus): > 2000 mg/kg-day | NOEC (Colinus virginianus; reproduction developmental): 65.4 mg/kg-day | NOEC (Daphnia magna): 62.5 mg/L | LR50 (Aphidius rhopalosiphi): 90.2 g/ha
